Experimental data from the supplement of paper PMC5908809.

Key:
[1] = test system: normal NK cells expanded with K562-aAPC; assay: percent inhibition of viability; higher = more inhibition; details: 72 h, IL-2 2.5 ng/mL
Procedure: (§1)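 Drug sensitivity and resistance testing on K562-aAPC-expanded normal NK cells: 5 concentrations (10-fold steps over a 10,000-fold range), 72 h at 37 °C, viability by CellTiter-Glo normalised to DMSO and benzethonium chloride controls; DSS from the fitted curve.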

IMC-1 (IL-2 20 ng/mL) [2] = assay: as above; details: 72 h
NK-YS (IL-2 2.5 ng/mL) [3] = assay: as above; details: 72 h
[4] = test system: normal primary NK cells, pool 1 (3 donors), resting (IL-2 0 ng/mL); assay: as above; details: 72 h
[5] = test system: normal primary NK cells, pool 1 (3 donors) (IL-2 2.5 ng/mL); assay: as above; details: 72 h
KAI3 (IL-2 2.5 ng/mL) [6] = assay: as above; details: 72 h
SNK-6 (IL-2 2.5 ng/mL) [7] = assay: as above; details: 72 h
NK-92 (IL-2 2.5 ng/mL) [8] = assay: as above; details: 72 h
[9] = test system: normal primary NK cells, pool 2 (3 donors) (IL-2 2.5 ng/mL); assay: as above; details: 72 h
DERL-7 (IL-2 2.5 ng/mL) [10] = assay: as above; details: 72 h
YT (IL-2 2.5 ng/mL) [11] = assay: as above; details: 72 h
KHYG-1 (IL-2 2.5 ng/mL) [12] = assay: as above; details: 72 h
[13] = test system: normal primary NK cells, pool 3 (3 donors) (IL-2 2.5 ng/mL); assay: as above; details: 72 h
NKL (IL-2 2.5 ng/mL) [14] = assay: as above; details: 72 h
IMC-1 (IL-2 20 ng/mL) [15] = assay: drug sensitivity score (DSS) (DSS units); higher = more sensitive; extreme values may be limits of the assay; details: 72 h
NK-YS (IL-2 2.5 ng/mL) [16] = assay: as above; details: 72 h
[17] = test system: normal primary NK cells, pool 1 (3 donors), resting (IL-2 0 ng/mL); assay: as above; details: 72 h
[18] = test system: normal primary NK cells, pool 1 (3 donors) (IL-2 2.5 ng/mL); assay: as above; details: 72 h
KAI3 (IL-2 2.5 ng/mL) [19] = assay: as above; details: 72 h
SNK-6 (IL-2 2.5 ng/mL) [20] = assay: as above; details: 72 h
NK-92 (IL-2 2.5 ng/mL) [21] = assay: as above; details: 72 h
[22] = test system: normal primary NK cells, pool 2 (3 donors) (IL-2 2.5 ng/mL); assay: as above; details: 72 h
DERL-7 (IL-2 2.5 ng/mL) [23] = assay: as above; details: 72 h
YT (IL-2 2.5 ng/mL) [24] = assay: as above; details: 72 h
KHYG-1 (IL-2 2.5 ng/mL) [25] = assay: as above; details: 72 h
[26] = test system: normal primary NK cells, pool 3 (3 donors) (IL-2 2.5 ng/mL); assay: as above; details: 72 h
NKL (IL-2 2.5 ng/mL) [27] = assay: as above; details: 72 h
[28] = test system: normal NK cells expanded with K562-aAPC; assay: as above; details: 72 h; IL-2 2.5 ng/mL
Procedure: as §1

Cc1ccc(C(=O)N(CCCN)[C@@H](c2oc3cc(Cl)ccc3c(=O)c2Cc2ccccc2)C(C)C)cc1 (max concentration tested 100 nM)
percent inhibition of viability [%]
Details | 0.01 nM | 0.1 nM | 1 nM | 10 nM | 100 nM
DERL-7 (IL-2 2.5 ng/mL) [10] | -6.36 | -10.3 | -3.04 | 12.1 | 100
IMC-1 (IL-2 20 ng/mL) [2] | -7.61 | -1.73 | 0.06 | 99.8 | 101
KAI3 (IL-2 2.5 ng/mL) [6] | -6.39 | -3.85 | -7.56 | 25.9 | 57.9
KHYG-1 (IL-2 2.5 ng/mL) [12] | 2.63 | -2.09 | 3.33 | 98.1 | 108
NK-92 (IL-2 2.5 ng/mL) [8] | -6.69 | -0.53 | 4.14 | 12.2 | 92.1
NK-YS (IL-2 2.5 ng/mL) [3] | -1.37 | -2.68 | 5 | 71.1 | 80.5
NKL (IL-2 2.5 ng/mL) [14] | 7.05 | -6.08 | 0.2 | 79.2 | 94.4
SNK-6 (IL-2 2.5 ng/mL) [7] | -16.1 | -20.8 | 5.75 | 78 | 91.8
YT (IL-2 2.5 ng/mL) [11] | -0.9 | -3.95 | -3.98 | 6.11 | 67.4
[1] | 0.7 | -0.13 | 0.62 | 47.5 | 60.9
[4] | -14 | -28.1 | 6.55 | -12.4 | 0.78
[5] | -6.46 | -14.6 | 7.89 | 0.13 | 9.64
[9] | -6.06 | -2.94 | 7.66 | 13.1 | 9.78
[13] | -4.72 | -7.26 | 16.7 | 13.5 | 15.5

Details | drug sensitivity score
DERL-7 (IL-2 2.5 ng/mL) [23] | 7.54
IMC-1 (IL-2 20 ng/mL) [15] | 17.9
KAI3 (IL-2 2.5 ng/mL) [19] | 6.54
KHYG-1 (IL-2 2.5 ng/mL) [25] | 18.2
NK-92 (IL-2 2.5 ng/mL) [21] | 7.14
NK-YS (IL-2 2.5 ng/mL) [16] | 13.7
NKL (IL-2 2.5 ng/mL) [27] | 14.5
SNK-6 (IL-2 2.5 ng/mL) [20] | 15
YT (IL-2 2.5 ng/mL) [24] | 4.68
[17] | 0
[18] | 0
[22] | 1.26
[26] | 3.16
[28] | 8.92

CNC(=O)c1cc(Oc2ccc(NC(=O)Nc3ccc(Cl)c(C(F)(F)F)c3)cc2)ccn1 [Sorafenib] (max concentration tested 1000 nM)
percent inhibition of viability [%]
Details | 0.1 nM | 1 nM | 10 nM | 100 nM | 1000 nM
DERL-7 (IL-2 2.5 ng/mL) [10] | -14.3 | 2.59 | 4.15 | 1.1 | 25.2
IMC-1 (IL-2 20 ng/mL) [2] | -6.25 | -2.7 | -8.4 | -3.64 | -1.65
KAI3 (IL-2 2.5 ng/mL) [6] | 2.87 | 5.97 | 0.72 | 2.84 | -4.41
KHYG-1 (IL-2 2.5 ng/mL) [12] | -1.09 | 0 | -1.1 | 2.71 | -0.82
NK-92 (IL-2 2.5 ng/mL) [8] | -2.2 | -1.4 | -3.13 | -5.91 | 25.7
NK-YS (IL-2 2.5 ng/mL) [3] | -0.65 | -1.62 | -0.99 | 3.14 | 5.95
NKL (IL-2 2.5 ng/mL) [14] | -18.1 | -17.9 | -14.8 | -9.31 | -11.3
SNK-6 (IL-2 2.5 ng/mL) [7] | 9.25 | 14.7 | 5.19 | 17.7 | 30.7
YT (IL-2 2.5 ng/mL) [11] | -0.23 | -2.47 | 0.91 | 1.22 | 3.17
[1] | -0.62 | -4.84 | 0.63 | -4.73 | -7.05
[4] | -6.78 | -15.6 | 0.71 | 9.47 | 20.5
[5] | -10 | -8.22 | -3.22 | -10.4 | -2.85
[9] | -8.52 | -3.3 | -11.4 | -7 | -14.1
[13] | -4.53 | -9.01 | -3.28 | -8.55 | -2.67

Details | drug sensitivity score
DERL-7 (IL-2 2.5 ng/mL) [23] | 1.11
IMC-1 (IL-2 20 ng/mL) [15] | 0
KAI3 (IL-2 2.5 ng/mL) [19] | 0
KHYG-1 (IL-2 2.5 ng/mL) [25] | 0
NK-92 (IL-2 2.5 ng/mL) [21] | 0.73
NK-YS (IL-2 2.5 ng/mL) [16] | 0
NKL (IL-2 2.5 ng/mL) [27] | 0
SNK-6 (IL-2 2.5 ng/mL) [20] | 3.94
YT (IL-2 2.5 ng/mL) [24] | 0
[17] | 1.53
[18] | 0
[22] | 0
[26] | 0
[28] | 0
